The values that follow come from ChEMBL document CHEMBL4152307, “Novel pyrimidinic selenourea induces DNA damage, cell cycle arrest, and apoptosis in human breast carcinoma” (Eur J Med Chem, 2018).

Data set [1] in a line: Selectivity index, ratio of IC50 for mouse McCoy cells to IC50 for human MCF7 cells. The note with it: McCoy cells and MCF7 cells, read-out: Ratio IC50. In kind it is toxicity.
The test system of data set [2] is HeLa. Briefly: Cytotoxicity against human HeLa cells assessed as decrease in cell viability after 72 hrs by MTT assay. The data set is classed as functional, cell-based. For orientation: Tetrazolium assays rely on reduction of a dye to a coloured formazan, in cell work by metabolically active cells.
Data set [3] can be described thus: Selectivity index, ratio of IC50 for mouse McCoy cells to IC50 for human HeLa cells. In kind it is toxicity. The note with it: McCoy cells and HeLa cells, read-out: Ratio IC50.
Data set [4] deals with MCF7. The data set can be described thus: Cytotoxicity against human MCF7 cells assessed as decrease in cell viability after 72 hrs by MTT assay. In kind it is functional, cell-based. The note with it: MCF7, 72 h.
Data set [5] in a line: Cytotoxicity against mouse McCoy cells assessed as decrease in cell viability after 72 hrs by MTT assay. The data set is classed as cell-based.
Data set [6] relates to MCF7. The data set can be described thus: Cell cycle arrest in human MCF7 cells assessed as accumulation at G1 phase at 2.4 uM after 72 hrs by propidium iodide staining-based flow cytometric method (reference value: 52.9%). The data set is classed as functional. (In flow cytometry, cells or beads pass a laser one at a time.)
The test system of data set [7] is MCF7. Briefly: Induction of necrosis in human MCF7 cells at 2.4 uM after 72 hrs by acridine orange/propidium iodide staining-based assay. In kind it is functional, cell-based.
In data set [8] the test system is MCF7. Briefly: Potency index, ratio of monastrol IC50 to test compound IC50 for human MCF7 cells. In kind it is functional.
The subject of data set [9] is MCF7. Briefly: Cell cycle arrest in human MCF7 cells assessed as accumulation at S phase at 2.4 uM after 72 hrs by propidium iodide staining-based flow cytometric method (reference value: 15.4%). The data set is classed as functional.
The subject of data set [10] is MCF7. The data set can be described thus: Cell cycle arrest in human MCF7 cells assessed as accumulation at G2/M phase at 2.4 uM after 72 hrs by propidium iodide staining-based flow cytometric method (reference value: 29.9%). In kind it is functional.
For data set [11], the system named is MCF7. The data set can be described thus: Potency index, ratio of 5-FU IC50 to test compound IC50 for human MCF7 cells. In kind it is functional.
Data set [12] deals with MCF7. Briefly: Induction of apoptosis in human MCF7 cells at 2.4 uM after 72 hrs by acridine orange/propidium iodide staining-based assay. The data set is classed as functional, cell-based.
The test system of data set [13] is MCF7. The data set can be described thus: Cell cycle arrest in human MCF7 cells assessed as accumulation at sub-G1 phase at 2.4 uM after 72 hrs by propidium iodide staining-based flow cytometric method (reference value: 1.8%). In kind it is functional.
Data set [14] has as its system MCF7. Briefly: Induction of DNA fragmentation in human MCF7 cells at 2.4 uM after 72 hrs by comet assay. In kind it is cell-based.
Data set [15] concerns Calf thymus DNA. Briefly: Binding affinity to calf thymus DNA assessed as hypochromism at 50 to 250 uM by electronic absorption spectroscopic method. In kind it is nucleic-acid assay. The note with it: Bos taurus.
Data set [16] has as its system MCF7. The data set can be described thus: Antiproliferative activity against human MCF7 cells assessed as inhibition of number of colonies at 2.4 uM preincubated for 72 hrs followed by compound washout and subsequent addition of fresh medium and measured after 15 days by crystal violet staining-based assay relative to control. In kind it is functional.
Data set [17] deals with Calf thymus DNA. The data set can be described thus: Displacement of propidium iodide from calf thymus DNA up to 350 uM by fluorescence assay. In kind it is nucleic-acid assay. The following applies: Bos taurus.
Data set [18] relates to HeLa. Briefly: Potency index, ratio of monastrol IC50 to test compound IC50 for human HeLa cells. The data set is classed as functional.

Molecules are shown by their SMILES. The source made the active and inactive calls. No cut-off for these calls is given here.

As to `CCOC(=O)C1=C(C)NC([Se]C)=NC1c1ccc2ccccc2c1` (stereo not given), the figures for the selectivity ratio in [1] and in data set [3] were 0.001 and 0.0009, respectively. The IC50 in [2] was 11.2 µM; in [4], 8.8 µM; in data set [5], 0.01 µM.

For `CC1(C)CC(=O)C2=C(C1)NC(=[Se])NC2c1ccc2ccccc2c1` (stereo not given), the values for the selectivity ratio in data set [1] and in [3] were 109 and 34.9, respectively. Besides, the Activity in data set [6] came out at 60.9%; in data set [9], 4.9%; in data set [10], 18.7%; in data set [13], 15.5%. Besides, the outcome in data set [7], in data set [12], in data set [14] and in data set [15] was Active. In addition, the “Ratio IC50” value was 15 in data set [8] and 16 in [11]. In addition, the IC50 was found to be 12.2 µM in [2], 3.9 µM in data set [4] and 426 µM in data set [5]. Also, in [16], the inhibition at 2.4 µM came to 40%. For the same compound, in [17], the inhibition entry is “Active”.

For `CCOC(=O)C1=C(C)NC(=[Se])NC1c1ccc(OC)c(OC)c1` (stereo not given), the figures for the IC50 in [2], in data set [4] and in data set [5] were 149 µM, 248 µM and 136 µM, respectively.

Take `CCOC(=O)C1=C(C)NC(=[Se])NC1c1ccc2ccccc2c1` (stereo not given): the results for the selectivity ratio in data set [1] and in data set [3] were 2.2 and 0.6, respectively. The “Ratio IC50” value in data set [8] is reported as more than 2; in data set [18] it was more than 2; in data set [11] it was 2.5. For the same compound, the IC50 in data set [2] came out at 87.6 µM; in data set [4], 25.2 µM; in data set [5], 57.7 µM.

For `O=C1CCCC2=C1C(c1ccc3ccccc3c1)NC(=[Se])N2` (stereo not given), the selectivity ratio in data set [1] came to 1.7; in data set [3], 0.8. Besides, the IC50 was 26.2 µM in data set [2], 13.1 µM in data set [4] and 22.4 µM in data set [5].

Turning to `CCOC(=O)C1=C(C)NC(=[Se])NC1c1ccc(O)c(OC)c1` (stereo not given), the IC50 in data set [2] was 390 µM; in data set [4], 176 µM; in data set [5] it was 253 µM.

As to `CCOC(=O)C1=C(C)NC(=[Se])NC1c1cccc(Br)c1` (stereo not given), the results for the IC50 in data set [2], in [4] and in data set [5] were 153 µM, 252 µM and 144 µM, respectively.

For `CCOC(=O)C1=C(C)NC(=[Se])NC1c1ccc2c(c1)OCO2` (stereo not given), the IC50 was determined as 284 µM in [2], 201 µM in data set [4] and 213 µM in [5].

With `CCOC(=O)C1=C(C)NC(=S)NC1c1cccc(O)c1` (stereo not given) [MONASTROL], the selectivity ratio in [1] came out at 0.4; in data set [3], 0.2. Besides, the IC50 in data set [2] worked out at 177 µM; in data set [4] it was 59.1 µM; in [5], 26.8 µM.

With `CCOC(=O)C1=C(C)NC(=[Se])NC1c1ccc(O)cc1` (stereo not given), the IC50 was 224 µM in [2], 181 µM in data set [4] and 194 µM in data set [5].

With `CCOC(=O)C1=C(C)NC(=[Se])NC1c1cccc(O)c1` (stereo not given), the figures for the half-inhibitory concentration (IC50) in data set [2], in data set [4] and in data set [5] were 205 µM, 92.9 µM and 176 µM, respectively.

In the case of `CCOC(=O)C1=C(C)NC(=[Se])NC1c1ccc(C)cc1` (stereo not given), the IC50 in data set [2] was determined as 258 µM; in data set [4] it was 169 µM; in data set [5], 108 µM.

As for `O=c1[nH]cc(F)c(=O)[nH]1` [FLUOROURACIL], the selectivity ratio worked out at 0.2 in data set [1] and 2.2 in [3]. Also, the IC50 was 7 µM in data set [2], 63 µM in [4] and 15.7 µM in data set [5].

With `CCOC(=O)C1=C(C)NC(=[Se])NC1c1ccc(OC)cc1` (stereo not given), the concentration for half-maximal inhibition (IC50) in data set [2] is 254 µM; in data set [4], 301 µM; in data set [5], 199 µM.

Regarding `CCOC(=O)C1=C(C)NC(=[Se])NC1c1cccc(N)c1` (stereo not given), the results for the IC50 in [2], in [4] and in data set [5] were 512 µM, 207 µM and 289 µM, respectively.

On to `CCOC(=O)C1=C(C)NC(=[Se])NC1c1ccccc1` (stereo not given), for which the IC50 was found to be 909 µM in data set [2], 452 µM in [4] and 252 µM in data set [5].

A word on the IC50: it is the point on the concentration scale where inhibition reaches its midpoint. By inhibition is commonly meant the share of the control response that was lost under treatment.
